Source: article PMC12087874, “Biaryl Phosphates and Phosphonates as Selective Inhibitors of the Transcription Factor STAT4” (Angewandte Chemie (International Ed. in English), 2025)
Changes are numbered by the printed parent chain.

How the values were obtained:
Format in all cases: binding
STAT4 Lys580Ala = biological target: T1, STAT4 Lys580Ala (Homo sapiens, UniProt Q14765, K580A); assay: Isothermal titration calorimetry (ITC), STAT4 Lys580Ala; settings: n = 4
T1 construct: 6xHis; made in house
T1 sequence (Q14765 1-748 K580A): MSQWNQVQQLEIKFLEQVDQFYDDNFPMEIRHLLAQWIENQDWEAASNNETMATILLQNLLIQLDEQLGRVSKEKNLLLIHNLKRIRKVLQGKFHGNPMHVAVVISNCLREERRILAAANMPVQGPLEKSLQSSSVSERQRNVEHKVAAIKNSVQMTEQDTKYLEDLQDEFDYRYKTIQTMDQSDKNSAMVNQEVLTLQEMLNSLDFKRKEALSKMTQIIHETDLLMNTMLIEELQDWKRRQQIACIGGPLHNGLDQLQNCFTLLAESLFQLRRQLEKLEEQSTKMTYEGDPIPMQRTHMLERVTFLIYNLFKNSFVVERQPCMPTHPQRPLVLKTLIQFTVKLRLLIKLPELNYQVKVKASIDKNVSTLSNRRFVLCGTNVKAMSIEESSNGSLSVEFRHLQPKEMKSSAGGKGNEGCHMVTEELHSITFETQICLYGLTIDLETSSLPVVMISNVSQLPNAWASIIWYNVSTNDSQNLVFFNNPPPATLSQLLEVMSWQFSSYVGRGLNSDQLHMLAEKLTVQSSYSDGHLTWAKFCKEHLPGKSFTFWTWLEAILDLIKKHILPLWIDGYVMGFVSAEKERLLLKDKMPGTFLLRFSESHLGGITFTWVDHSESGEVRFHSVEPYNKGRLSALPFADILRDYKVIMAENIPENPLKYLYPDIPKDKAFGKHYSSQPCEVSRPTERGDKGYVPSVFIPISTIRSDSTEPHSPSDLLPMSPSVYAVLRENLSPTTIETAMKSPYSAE
Procedure: Isothermal Titration Calorimetry
Purification of 6xHis-tagged proteins for ITC experiments was carried out by affinity chromatography on His-Bind resin. The eluting fractions were analyzed by SDS -PAGE.
Proteins were dialyzed against ITC buffer (10 mM Tris pH 8.0, 50 mM NaCl) using dialysi s tubing with a 50 kDa cut-off. ITC experiments were performed using a VP-ITC Micro Calorimeter (MicroCal). 6m was dissolved as a 100 mM stock in DMSO and diluted 1/1000 in ITC buffer (Tris pH 8.0 and 50 mM NaCl), resulting in a final concentration of 100 µM. 8k was dissolved as a 5 mM stock in ITC buffer and diluted 1/25 in ITC buffer with DMSO, resulting in a final concentration of 200 µM 8k. DMSO was added to a final concentration of 2% (v/v). To avoid errors caused by the detection of dilution heat, 0.1 % (v/v) DMSO for 6m or 2% (v/v) DMSO for 8k experiments was added to the buffers containing the proteins and to the reference buffer. Proteins were degassed before the experiments using a ThermoVac sample degassing station. The following conditions were used for ITC experiments: 10 µM STAT4 protein for 6m or 20 µM STAT4 protein for 8k experiments, 100 µM 6m or 200 µM 8k, 28 injections with 10 µL single injection volume, 250 s initial delay, 500 s spacing between injections, 250 µcal/s reference power, 300 rpm stirring at 25 °C for 6m or 220 rpm stirring at 25 °C for 8k. […]

STAT4 Arg598Ala = biological target: T2, STAT4 Arg598Ala (Homo sapiens, UniProt Q14765, R598A); assay: Isothermal titration calorimetry (ITC), STAT4 Arg598Ala; settings: n = 4
T2 construct: 6xHis; made in house
T2 sequence (Q14765 1-748 R598A): T1 sequence (Q14765 1-748 K580A) with A580K, R598A

STAT3 = STAT3 (Homo sapiens, UniProt P40763); assay: CETSA of STAT3 in lysates from NK-92 cells; design: endogenous in cells; host or cells: NK-92 (DSMZ) lysate
Sequence of STAT3 (P40763 whole entry): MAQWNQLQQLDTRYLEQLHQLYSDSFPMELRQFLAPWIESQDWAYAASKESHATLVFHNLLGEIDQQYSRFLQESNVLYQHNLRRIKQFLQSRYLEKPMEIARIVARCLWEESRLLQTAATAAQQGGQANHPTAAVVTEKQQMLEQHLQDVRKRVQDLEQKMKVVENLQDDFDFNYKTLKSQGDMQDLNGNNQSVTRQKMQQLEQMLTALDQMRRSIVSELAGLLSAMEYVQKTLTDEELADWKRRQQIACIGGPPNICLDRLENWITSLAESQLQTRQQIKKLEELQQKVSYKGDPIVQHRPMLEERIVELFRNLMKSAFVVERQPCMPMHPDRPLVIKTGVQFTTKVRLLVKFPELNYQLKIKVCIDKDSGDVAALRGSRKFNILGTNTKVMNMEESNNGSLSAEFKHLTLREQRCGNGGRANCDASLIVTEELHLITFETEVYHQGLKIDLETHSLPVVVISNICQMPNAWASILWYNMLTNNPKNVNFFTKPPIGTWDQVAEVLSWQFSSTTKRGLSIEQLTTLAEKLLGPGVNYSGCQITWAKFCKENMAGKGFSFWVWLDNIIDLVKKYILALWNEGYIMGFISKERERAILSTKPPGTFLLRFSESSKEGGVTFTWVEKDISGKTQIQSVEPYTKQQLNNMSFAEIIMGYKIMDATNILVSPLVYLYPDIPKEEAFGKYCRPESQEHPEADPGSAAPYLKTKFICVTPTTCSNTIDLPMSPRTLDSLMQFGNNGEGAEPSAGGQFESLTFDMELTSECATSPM
Procedure: NK-92 cells (DSMZ) were cultured in -MEM containing 12.5% fetal bovine serum (FBS), 12.5% horse serum, 2 mM L-glutamine, penicillin/streptomycin and 50 U/ml IL -2.
NK-92 cells were treated with test compound or DMSO in 1.5 ml medium in 12 -well plates (Corning) for 2 h (final DMSO concentration 0.2%), in the presence of 50 ng/ml IL -12 (PeproTech). […] Cells were harvested by washing twice with ice -cold TBS, followed by resuspension in TBS supplemented with protease/phosphatase inhibitors (100 ng/ml aprotinin, 1 mM Na3VO4, 10 mM NaF, 1 mM PMSF). […] Cells were lysed using three freeze -thaw cycles with liquid nitrogen and lysates cleared by centrif ugation.
NK-92 cell lysates were prepared for CETSA experiments by washing cultured cells once with TBS and resuspending in TBS supplemented with Halt Protease In hibitor Cocktail, EDTA-free (Fisher Scientific) at 3 x 10^6 cells per 100 µl. Cells were lysed using three freeze -thaw cycles with liquid nitrogen and lysates cleared by centrifugation.
CETSA experiments were performed essentially using the published protocol. […] Briefly, NK-92 cell lysates were incubated with test compound or DMSO for 15 min at room temperature (final DMSO concentration 2%). During this time, the treated lysate was divided into 10x 50 µl aliquots in 0.2 ml reaction tubes. Samples were then heated to the designated temperatures in a Veriti Pro Thermocycler (Thermo Fishe r Scientific) for 3 min, followed by 3 min incubation at room temperature, and then placed on ice. […] The soluble fractions were subsequently analyzed by Western blotting.
The components of cell lysates from treated cells, or heat-treated lysates from CETSA, were separated by SDS-PAGE (10%), transferred to nitrocellulose membrane (Bio-Rad) and detected using monoclonal rabbit primary antibodies (Cell Signaling), -rabbit-HRP secondary antibody (Dako) and Western Lightning Plus chemiluminescence reagent (Perkin Elmer).
Bands were visualized using an ImageQuant system (GE Healthcare) and quantitated using ImageJ software (NIH).

ΔT agg of STAT3 (STAT3; CETSA, NK-92 cell lysates, versus DMSO control)	T agg of STAT3 (STAT3; CETSA, NK-92 cell lysates, DMSO control 51.0 ± 0.3 °C, n = 3)	stabilization of STAT3 against thermal degradation (STAT3; lysates from NK-92 cells, Ac-pYLPQTV-NH2 at 100 µM)	SMILES	binding to STAT4 point mutant Lys580Ala (ITC) (STAT4 Lys580Ala)	binding to STAT4 point mutant Arg598Ala (ITC) (STAT4 Arg598Ala)
–	–	–	O=P(O)(O)Oc1ccc(-c2ccc3ccccc3c2)cc1F [Compound 6m]	too weak for reliable quantification	no heat release
−0.4 °C	50.6 ± 0.2 °C	does not stabilize	Cc1cc(-c2ccc(C(F)(F)P(=O)(O)O)c(F)c2)cs1 [Compound 8k]	–	–
